Values of other authors in patent EP3954777A1, “METHOD FOR ENZYMATIC DEGRADATION OF BITTER COMPOUNDS IN AGRO-INDUSTRIAL BY-PRODUCTS” (SternEnzym GmbH & Co. KG, priority 2020, dated 2022).

System: human test persons
Conditions: bitter taste

kaempferol 3-O-(2"'-O-sinapoyl-β-sophoroside)
level that, on average, can be tasted by humans (average (Hald et al., 2019)): 3.4 µmol/L
lowest level detectable by human test persons (lowest (Hald et al., 2019)): 1.7 µmol/L
